# Data as given in patent US10597369B2, “Monosulfonic phenyltetrazole compounds with applications” (HANGZHOU JENNIFER BIOTECH CO., LTD., priority 2015, dated 2020).
# Structures can show the parent of a compound that is named as a salt.
# Columns and labels:
# [1] = Reagent stability assays (stored tetrazolium detection reagent tested with NADH, response at 450 nm); type: physicochemical; conditions: for lost activity: detection reagent after storage at 4° C. for a month, tested using 100 μM NADH in 50 mM Tris-Cl (pH 8); for changes in activity on storage: storage at −20° C. for up to a year, tested monthly in NADH titration
# Description: The tetrazolium detection reagent (WST-8 or EZMTT) was stored at 4 and −20° C., respectively. Once a month, the stored tetrazolium detection reagent was tested using 100 μM NADH in 50 mM Tris-Cl (pH 8) and the response was measured at 450 nm.
# For the stability test, the WST-8, EZMTT detection reagents were stored at 4° C. and −20° C. up to a year. Both reagents were tested in NADH titration every month for their activities.
SMILES,lost activity [1],changes in activity on storage [1],melting point
"COc1cc([N+](=O)[O-])ccc1-[n+]1nc(-c2ccc(S(=O)(=O)[O-])cc2S(=O)(=O)[O-])nn1-c1ccc([N+](=O)[O-])cc1.[Na+] [WST-8, 2-(3-(2-methoxy-4-nitrophenyl)-2-(4-nitrophenyl)-2H-tetrazolium)benzene disulfonate sodium salt, reference compound]",60%,essentially no changes in activity,
"COc1cc([N+](=O)[O-])ccc1-[n+]1nc(-c2ccccc2S(=O)(=O)O)nn1-c1ccc([N+](=O)[O-])cc1 [EZMTT, 2-(4-nitrophenyl)-3-(2-methoxy-4-nitrophenyl)-5 (2-sulfonic phenyl)-2H-tetrazolium monosodium salt]",25%,essentially no changes in activity,
"COc1cc([N+](=O)[O-])ccc1-[n+]1nc(-c2ccccc2S(=O)(=O)O)nn1-c1ccc([N+](=O)[O-])cc1 (as salt: sodium) [EZMTT, 2-(4-nitrophenyl)-3-(2-methoxy-4-nitrophenyl)-5 (2-sulfonic phenyl)-2H-tetrazolium monosodium salt]",,,105 °C
